Assay results reported in patent EP1618800A1, “Active compositions comprising lycopene, cytidin and fatty acids” (Cognis IP Management GmbH, priority 2004, dated 2006).

What was measured:
Assay type in all cases: biochemical
[1] = tested on: xanthine oxidase; test: Xanthine oxidase test (superoxide radicals detected with luminol, luminol + microperoxidase or NBT); details: sample concentration 0.3 % b.w., average of 2 measurements; for Test with xanthan oxidase, inhibition, NBT: optical density at 490 nm
Text: In the next test, the radical-trapping properties of the test samples were investigated using xanthine oxidase as the test system. Under oxidative stress, the enzyme converts purine bases, for example, adenine or guanine, into uric acid with intermediate formation of oxygen radicals which are spontaneously decomposed into H2O2 and oxygen by Superoxid-Dismutase (SOD). These Superoxid radicals can be detected and quantitatively determined by reaction with luminol or luminol and microperoxidase and by NBT via the luminescence and the optical density at 490 nm. The luminescence yield diminishes in the presence of substances with radical-trapping properties. The concentration of the test samples has been at 0.3 % b.w. again. The results are set out in Table 3 where the inhibition is shown in % absolute ("Luminol Test"). Table 3 Test with xanthan oxidase in % absolute (results are averages of 2 measurements)

[2] = Deoxyribose oxidation by hydroxyl radicals (thiobarbituric acid, 532 nm), with or without EDTA; details: sample concentration 0.3 % b.w., average of 2 measurements
Protocol: In the following test, deoxyribose was used as the test substance. In the presence of hydroxyl radicals formed from H2O2 in the presence of Fe^2+ and EDTA, deoxyribose is oxidized. A pink-coloured substance is formed from the oxidized form by condensation with thiobarbituric acid. The optical density was determined at 532 nm and is dependent on the content of oxidized deoxyribose. A radical-trapping substance reacts with the hydroxyl radicals formed and reduces the formation of pink-coloured substances in this reaction mixture. In addition, the same reaction was carried out without EDTA to investigate complexing properties of the extract with Fe^2+ ions. The concentration of the samples has been again 0.3 % b.w. Table 2 Radical-trapping properties with desoxyribose in % absolute (results are averages of 2 measurements)

[3] = Salicylic Acid Test (hydroxylation of salicylic acid by hydroxyl radicals, 490 nm); details: sample concentration 0.3 % b.w., average of 2 measurements
Protocol: In a second test, the hydroxylation of salicylic acid by hydroxyl radicals (from the reaction of hydrogen peroxide with iron(III) ions and EDTA) was investigated as a reference system. This reaction can also be photometrically investigated because the hydroxylation product is reddish in colour. The influence of the extracts on the formation of hydroxysalicylic acid was measured at an optical density of 490 nm. The results are also set out in Table 1 where inhibition is again shown in % absolute ("Salicylic Acid Test"). Table 1 Radical-trapping properties in % absolute (results are averages of 2 measurements)

[4] = DPPH Test (radical trapping, photometric at 513 nm); details: Batch A; sample concentration 0.3 % b.w.; average of 2 measurements
Text: In a first series of tests, the effectiveness of the extracts against oxidative stress was investigated by chemical methods. A commercially available extract of tomatoes, CLA (Tonalin® CLA, Cognis) and their mixtures were used in concentrations of 0.3 % b.w. The first test substrate selected was diphenyl picryl hydrazyl (DPPH), a purple-red coloured stable radical which changes into its colourless leuco derivative on contact with radical trappers. The change of colour was followed photometrically at 513 nm. The test results are set out in Table 1 ("DPPH Test") where the inhibition of DPPH is shown in % absolute.

In the case of conjugated linoleic acid [C2], the “Test with xanthan oxidase, inhibition, Luminol + Microperoxidase” value ([1]; Batch A) is reported as 5 % absolute, the “Test with xanthan oxidase, inhibition, Luminol + Microperoxidase” value ([1]; Batch B) is reported as 7 % absolute and the “Test with xanthan oxidase, inhibition, Luminol” value ([1]; Batch A) is reported as 3 % absolute. For the same substance, the “Test with xanthan oxidase, inhibition, Luminol” value ([1]; Batch B) was 3 % absolute, the “Test with xanthan oxidase, inhibition, NBT” value ([1]; Batch A) was 1 % absolute and the “Test with xanthan oxidase, inhibition, NBT” value ([1]; Batch B) was 1 % absolute. For the same substance, the “Radical-trapping properties with desoxyribose, Reaction with EDTA” value ([2]; Batch A) was 1 % absolute, the “Radical-trapping properties with desoxyribose, Reaction with EDTA” value ([2]; Batch B) was 0 % absolute and the “Radical-trapping properties with desoxyribose, Reaction without EDTA” value ([2]; Batch A) was 0 % absolute. The “Radical-trapping properties with desoxyribose, Reaction without EDTA” value ([2]; Batch B) was 0 % absolute, the “Salicylic Acid Test, inhibition” value ([3]; Batch A) was 5 % absolute and the “Salicylic Acid Test, inhibition” value ([3]; Batch B) was 5 % absolute. For the same substance, the “DPPH Test, inhibition of DPPH” value [4] was 18 % absolute.
